Patent US10858413B2, “Immunoglobulins and uses thereof” (Janssen Pharmaceutica NV, priority 2016, dated 2020)
Marks after values point to notes of the source that are not given here.

Legend:
DIO mice [1] = assay: OGTT (blood glucose, insulin) in DIO mice after 8 days of treatment; assay type: in vivo, mouse; conditions: 0.3 nmol/kg s.c. every day
Method: (§1) Compound 1 was evaluated for its ability to reduce foot intake and body weight and improve glucose homeostasis on repeat dosing in male DIO C57B1/6 mice over a period of 8 days. Male DIO C57BL/6N mice (20 weeks of age, 14 weeks on high fat diet) were obtained from Taconic Laboratory. […] Animals were acclimated to the facility for at least one week prior to the start of the experiment.
(§2) The day prior to dosing, mice were grouped based on individual body weights. At 3:00-4:00 pm for each of the next 8 days, animals and food intake were weighed. […] After 8 days, mice are fasted for 5 hours and then given a 2 g/kg bolus of glucose orally at t=0. At t=0, 30, 60, 90, and 120 minutes post glucose challenge blood glucose is measured and at t=0, 30, and 90 minutes blood in drawn to measure plasma insulin. […] All data are presented as the mean±SEM (FIGS. 8 and 9, and Tables 5-8).

DIO mice [2] = assay: Fed blood glucose in DIO mice after 8 days of treatment; assay type: in vivo, mouse; conditions: 0.3 nmol/kg s.c. every day
Method: as §1, §2

DIO mice [3] = assay: Repeat dosing in DIO mice: daily food intake; assay type: in vivo, mouse; conditions: 0.3 nmol/kg s.c. daily
Method: (§3) To control for the dosing frequency, all animals were dosed daily. Dosing frequency was determined on the basis of DIO mouse PK data for compound 2 and dulaglutide. Animals in the dulaglutide group received this drug daily. The vehicle-treated animals received vehicle daily. […] The day prior to initiating of dosing, animals were weighed and grouped by body weight. […].
(§4) Beginning 24-hr after the first dosing, three groups of mice were pair-fed (PF) to the 1.0, 2.0, or 4.0 nmol/kg compound 2-treated animals. The amount of food in the hopper of pair-fed mice was adjusted to match the average food consumed in the previous 24 hours by mice in the compound treatment group to which they were being matched. All PF groups were dosed daily with vehicle. On the ninth day (or Day 10 for the pair-fed groups), animals were fasted for 6 hours and body weight and fasting glucose were measured. Blood was collected for measurements of insulin, FGF21 and plasma lipids. The food intake, body weight, body composition, fasting glucose, fasting insulin, fasting FGF21, and fasting plasma lipid data are shown in tables 20-26.

[4] = Repeat dosing in DIO mice: body weight change and body composition; assay type: in vivo, mouse; conditions: 0.3 nmol/kg s.c. daily
Method: as §3, §4

DIO mice [5] = assay: Repeat dosing in DIO mice: fasting glucose, insulin, FGF21, plasma lipids; assay type: in vivo, mouse; conditions: after repeated dosing, 0.3 nmol/kg s.c. daily
Method: as §3, §4

DIO mice [6] = assay: Single-dose efficacy in DIO mice: food intake; conditions: single s.c. dose 0.3 nmol/kg
DIO mice [7] = assay: Single-dose efficacy in DIO mice: plasma FGF21; conditions: 26 hours after treatment, single s.c. dose 0.3 nmol/kg
[8] = Single-dose efficacy in DIO mice: body weight change; conditions: single s.c. dose 0.3 nmol/kg, 18 hours after treatment, relative to day 0
DIO mice [9] = assay: Single-dose efficacy in DIO mice: fasting glucose, IPGTT glucose and insulin; conditions: single s.c. dose 0.3 nmol/kg
PTHR1 = target: T1, PTHR1 (Homo sapiens, UniProt Q03431); assay: class B GPCR cAMP assay, PTHR1; assay type: cell-based
T1 construct: host or cells: cells of an unnamed vendor
T1 sequence (Q03431 27-593): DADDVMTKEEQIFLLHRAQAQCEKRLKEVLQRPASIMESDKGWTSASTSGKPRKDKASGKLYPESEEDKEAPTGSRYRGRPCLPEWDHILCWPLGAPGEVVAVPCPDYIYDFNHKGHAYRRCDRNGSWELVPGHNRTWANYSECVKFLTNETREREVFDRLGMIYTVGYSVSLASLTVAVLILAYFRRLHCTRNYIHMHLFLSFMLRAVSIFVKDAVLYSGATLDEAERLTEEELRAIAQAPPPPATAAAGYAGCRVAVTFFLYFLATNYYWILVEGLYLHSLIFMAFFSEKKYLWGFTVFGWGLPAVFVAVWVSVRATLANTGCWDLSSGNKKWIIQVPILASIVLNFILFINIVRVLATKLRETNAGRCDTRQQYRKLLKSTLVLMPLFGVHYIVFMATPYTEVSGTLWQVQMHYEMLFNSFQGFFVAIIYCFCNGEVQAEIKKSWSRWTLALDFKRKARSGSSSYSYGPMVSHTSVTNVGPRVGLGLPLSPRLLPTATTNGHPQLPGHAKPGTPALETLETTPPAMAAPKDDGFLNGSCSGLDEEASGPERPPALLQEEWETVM
Method: The assays were performed according to the vendor's standard operating procedures with a positive control included for each receptor tested.

Dulaglutide: GLP1R agonist (long-acting GLP-1 receptor agonist) [reference compound]
blood glucose Delta AUC (OGTT) (DIO mice [1]): 6668 ± 1846 mg/dl/120 min
blood glucose Total AUC (OGTT) (DIO mice [1]): 15758 ± 1054 mg/dl/120 min
blood glucose during an OGTT (DIO mice [1]; 0 min after glucose challenge): 76 ± 9 mg/dL
insulin during an OGTT (DIO mice [1]; 0 min after glucose challenge): 0.6 ± 0.1 ng/mL
blood glucose during an OGTT (DIO mice [1]; 30 min after glucose challenge): 151 ± 14 mg/dL
insulin during an OGTT (DIO mice [1]; 30 min after glucose challenge): 1.7 ± 0.2 ng/mL
blood glucose during an OGTT (DIO mice [1]; 60 min after glucose challenge): 174 ± 17 mg/dL
blood glucose during an OGTT (DIO mice [1]; 90 min after glucose challenge): 104 ± 10 mg/dL
insulin during an OGTT (DIO mice [1]; 90 min after glucose challenge): 0.7 ± 0.2 ng/mL
blood glucose during an OGTT (DIO mice [1]; 120 min after glucose challenge): 119 ± 9 mg/dL
fed Blood Glucose (DIO mice [2]): 114 ± 13 mg/dL
daily food intake (DIO mice [3]; day 0): 3.1 ± 0.2 grams
daily food intake (DIO mice [3]; day 1): 1.5 ± 0.2 grams
daily food intake (DIO mice [3]; day 2): 1.3 ± 0.2 grams
daily food intake (DIO mice [3]; day 3): 1.7 ± 0.3 grams
daily food intake (DIO mice [3]; day 4): 1.9 ± 0.2 grams
daily food intake (DIO mice [3]; day 5): 2.1 ± 0.2 grams
daily food intake (DIO mice [3]; day 6): 2.2 ± 0.2 grams
daily food intake (DIO mice [3]; day 7): 2.3 ± 0.2 grams
daily food intake (DIO mice [3]; day 8): 2.9 ± 0.4 grams
daily food intake (DIO mice [3]; day 9): 2.5 ± 0.2 grams
percent body weight change ([4]; day 0, relative to day 0): 0.0%
percent body weight change ([4]; day 1, relative to day 0): −3.7 ± 0.3%
percent body weight change ([4]; day 2, relative to day 0): −6.2 ± 0.6%
percent body weight change ([4]; day 3, relative to day 0): −7.8 ± 0.8%
percent body weight change ([4]; day 4, relative to day 0): −9.2 ± 0.8%
percent body weight change ([4]; day 5, relative to day 0): −10.1 ± 0.8%
percent body weight change ([4]; day 6, relative to day 0): −10.2 ± 0.8%
percent body weight change ([4]; day 7, relative to day 0): −10.7 ± 1.0%
percent body weight change ([4]; day 8, relative to day 0): −11.1 ± 0.9%
percent body weight change ([4]; day 9, relative to day 0): −13.1 ± 1.1%
body composition: Fat Mass ([4]; after repeated dosing): 7.6 ± 1.1 g
body composition: Fat, % of Body Weight ([4]; after repeated dosing): 22.8 ± 1.2%
body composition: Lean Mass ([4]; after repeated dosing): 22.1 ± 0.3 g
body composition: Lean, % of Body Weight ([4]; after repeated dosing): 61.0 ± 1.7%
6 hour fasting Blood Glucose (DIO mice [5]): 123 ± 5 mg/dL
6 hour fasting Plasma Insulin (DIO mice [5]): 1.4 ± 0.2 ng/mL
6 hour fasting plasma FGF21 (DIO mice [5]): 0.5 ± 0.1 ng/mL
plasma Free Fatty Acids (DIO mice [5]): 73.2 ± 12.0 µmol/L
plasma Free Glycerol (DIO mice [5]): 0.5 ± 0.1 mmol/L
plasma Total cholesterol (DIO mice [5]): 146.1 ± 3.3 mg/dL
plasma Tri-glycerides (DIO mice [5]): 24.1 ± 2.3 mg/dL
food intake (DIO mice [6]; 18 hours post-dose): 1.5 ± 0.1*^ grams
food intake (DIO mice [6]; 24 hours pre-dose): 3.1 ± 0.1 grams
Plasma FGF21 (DIO mice [7]): 0.8 ± 0.2 ng/mL
Weight Change (%) [8]: −4.1 ± 0.3 %
6 hour fasting Blood Glucose (DIO mice [9]; 24 hours after treatment): 140 ± 7 mg/dL
Blood Glucose Net AUC during an IPGTT (DIO mice [9]; 24 hours after treatment): 8471 ± 1204
blood glucose during an IPGTT (DIO mice [9]; 24 hours after treatment, 0 min): 140 ± 7 mg/dL
blood glucose during an IPGTT (DIO mice [9]; 24 hours after treatment, 10 min): 264 ± 18 mg/dL
blood glucose during an IPGTT (DIO mice [9]; 24 hours after treatment, 30 min): 267 ± 22 mg/dL
blood glucose during an IPGTT (DIO mice [9]; 24 hours after treatment, 60 min): 228 ± 12 mg/dL
blood glucose during an IPGTT (DIO mice [9]; 24 hours after treatment, 90 min): 193 ± 9 mg/dL
Plasma Insulin (DIO mice [9]; 10 minutes post-glucose (IPGTT)): 1.7 ± 0.2 ng/mL
Plasma Insulin (DIO mice [9]; Pre-glucose (24 hours after treatment)): 1.6 ± 0.2 ng/mL

CC[C@H](C)[C@H](NC(=O)[C@H](CCC(=O)O)NC(=O)[C@H](CO)NC(=O)[C@@H](NC(=O)[C@@H](N)CO)C(C)C)C(=O)N[C@@H](CCC(N)=O)C(=O)N[C@@H](CC(C)C)C(=O)N[C@@H](CCSC)C(=O)N[C@@H](Cc1cnc[nH]1)C(=O)N[C@@H](CC(N)=O)C(=O)N[C@@H](CC(C)C)C(=O)NCC(=O)N[C@@H](CCCCN)C(=O)N[C@@H](Cc1cnc[nH]1)C(=O)N[C@@H](CC(C)C)C(=O)N[C@@H](CC(N)=O)C(=O)N[C@@H](CO)C(=O)N[C@@H](CCSC)C(=O)N[C@@H](CCC(=O)O)C(=O)N[C@@H](CCCNC(=N)N)C(=O)N[C@H](C(=O)N[C@@H](CCC(=O)O)C(=O)N[C@@H](Cc1c[nH]c2ccccc12)C(=O)N[C@@H](CC(C)C)C(=O)N[C@@H](CCCNC(=N)N)C(=O)N[C@@H](CCCCN)C(=O)N[C@@H](CCCCN)C(=O)N[C@@H](CC(C)C)C(=O)N[C@@H](CCC(N)=O)C(=O)N[C@@H](CC(=O)O)C(=O)N[C@H](C(=O)N[C@@H](Cc1cnc[nH]1)C(=O)N[C@@H](CC(N)=O)C(=O)N[C@@H](Cc1ccccc1)C(=O)O)C(C)C)C(C)C [PTH(1-34)]
Curve Bottom (PTHR1): −5.9767
Curve Top (PTHR1): 101
Hill (PTHR1): 1.8672
